Measured values from patent US20080292723A1, “Bioactive acid agrichemical compositions and use thereof” (priority 2007, published 2008).

Tests used:
E. amylovora 153N = test: Fire blight on crabapples; assay type: in vivo, Snow Drift crabapple trees; settings: for canker, in words / shoot blight incidence, in words: day 63
Description: A study of the bioefficacy of the various agrichemical compositions, including bioactive acid solutions and blends thereof with an antibiotic agrichemical, were evaluated to assess their bioefficacy against fire blight on crabapples. The study was conducted on 5 year old Snow Drift crabapple trees, with each of the compositions being applied to ten trees in two-subplots of five trees, four different times: at 100% bloom-day 1, a second application was made on day 4, a third on day 11 and a final treatment on day 19. The trees were inoculated with E. amylovora […] at a concentration of 4×10^6 cells per milliliter on day 1, following drying of the treatment, with the inoculation being repeated on day 13. Evaluation for fire blight was completed on 100 blossoms for each of the subplots on day 12, day 19 and day 27. Additionally, the incidence of shoot infection and the length of […] evaluated on day 63. The test compositions were prepared by forming solutions of the bioactive agents. Two different dilutions of the MI2 bioactive were evaluated, the first employing 94.46 ml/gallon (25 ml/l) of water (5 ppm of each metal) and the second 188.9 ml/gallon (50 ml/l) of water (10 ppm of each metal). […] Finally, copper hydroxide was diluted at a rate of 1 lb/gallon (119.8 g/l). Each of the compositions and blends were spray applied at a rate of 50 gallons (189.3 l) pre acre. The results are presented as the mean of the counts.

[1] = tested on: Saccharomycetes Cerevisiae (Fleishmann's Bakers yeast); test: Yeast growth inhibition by turbidity; assay type: cell-based; settings: Table 12, surfactant ~0.05 wt %, neat additive, Metal 0 ppm
Description: Saccharomycetes Cerevisiae was selected as a test organism as it is generally accepted in the industry as an indicator or surrogate organism for a wide variety of fungi. In each of these experiments, the same general procedure was followed unless otherwise indicated.
Experimental Detail: A growth medium was prepared by adding 10 grams of nutrient medium (Difco Sabouraud dextrose broth from BD of Franklin Lakes, N.J., USA) to 300 ml of distilled water. Fleishmann's Bakers yeast was then added to the growth medium while mixing using a magnetic stirrer until a uniform dispersion was obtained having an initial turbidity of between about 50 and 100 NTU as measured using a HF Instruments DRT 100B Turbidity Meter. […] The system/component to be evaluated was then added to the vial and intimately shaken to ensure a good, substantially homogeneous mixture. The turbidity of each mixture was then determined and the vial transferred to an incubator at 30° C. Each vial was periodically removed from the incubator and the mixture in the vials assessed for turbidity: the specific timing for such evaluation was as set forth in the discussion of the experiments and the accompanying tables. […]
In the tables below, the results are presented as the actual turbidity readings (NTU) with a sub-table presenting the change or delta in NTU values. […]

Compound | Shoot Incidence (E. amylovora 153N; Day 63, rate 5 lbs/a (2.27 kg/a), mean of counts) | canker, in words (E. amylovora 153N) | shoot blight incidence, in words (E. amylovora 153N) | T0 (turbidity) [1]
[Cu+2].[OH-].[OH-] [copper hydroxide] | 1.0 | appeared to prevent canker | greatly reduced | –
CCCCCCCCCCCCOS(=O)(=O)[O-].[Na+] | – | – | – | 48
[H]/N=C(/N)N[C@H]1[C@H](O)[C@@H](O)[C@H](O[C@@H]2O[C@@H](C)[C@](O)(C=O)[C@H]2O[C@@H]2O[C@@H](CO)[C@H](O)[C@@H](O)[C@@H]2NC)[C@@H](N/C(N)=N\[H])[C@@H]1O [streptomycin] | – | appeared to prevent canker | greatly reduced | –
